Test results from EP0615158A1, “A silver halide photographic light-sensitive material” (KONICA CORPORATION, priority 1993, dated 1994).

Settings: method of Shin Jikken Kagaku Koza, Kihon Sosa 1

Row | Compound | solubility in water at 25°C [% by weight]
1 | C=C(C)C(=O)OCCCC [butyl methacrylate] | 0.03
2 | C=Cc1ccccc1 [styrene] | 0.03
